What was measured:
Sodium channel = experiment: Inhibitory effect of veratrizine-induced sodium channel activity (synaptosome membrane potential, Rhodamine 6G); type: biochemical, Wistar rats; settings: compound 0.1 μM, rat brain synaptozomes, veratridine-induced depolarization
Procedure: Inhibitory Effect of Veratrizine-induced Sodium Channel Activity
The membrane potential of the synaptozomes prepared from the brain membrane of Wistar rats (male, 10 to 12 weeks old) was measured by the method of Aiuchi et al. (t. Aiuchi et al: Biochimi. Biophys. Acta. 771, 228 (1984)) using a membrane potential sensitive fluorescent dye Rhodamine 6G to evaluate the effects of suppression of the compound on the veratrizine-inducing depolarization response.

DBA/2N type mice = experiment: Audiogenic seizure suppressing effect; type: in vivo; settings: compound 10 mg/kg, i.p., audio stimulus after 20 minutes, suppression of average seizure score; for inhibition in vivo at 10 mg/kg: Mus musculus, ip, 20 min, read-out: Antiseizure effect (suppression rate %)
Procedure: Audiogenic Seizure Suppressing Effect
The audiogenic seizure suppressing effect of the compounds was evaluated by the method of Sarro et al. [G. B. De Sarro et al., Br. J. Pharmacol., 93, 247 (1988)]. That is, the compound dissolved in 10% 2-hydroxypropyl-β-cyclodextrin was administered intraperitoneally to DBA/2N type mice (male, 3 weeks old). After 20 minutes, a supersonic washer was used to apply audio stimulus of at least 90 dB for one minute. The wild running (WR), clonic seizures (clonus), tonic seizures (tonus), and respiratory arrest (RA) were observed.

Compound	Anti-veratridine effect (inhibiting rate %) (Sodium channel; 0.1 µM)	inhibition in vivo at 10 mg/kg (DBA/2N type mice)	Anti-veratridine effect (inhibiting rate %) (Sodium channel)	Antiseizure effect (suppression rate %) (DBA/2N type mice)	Antiseizure effect (suppression rate %) (DBA/2N type mice; 10 mg/kg)
OC(COc1ccccc1)CN1CCC(O)(c2ccc(Oc3ccccc3)cc2)CC1 (centres unmarked) [Compound 36, 4-(4-phenoxy)phenyl-1-(2-hydroxy-3-phenoxy)propyl-4-piperidinol]	28.6%	68%	–	–	–
O=C(CN1CCC(c2ccc(-c3ccccc3)cc2)CC1)c1ccccc1 [Compound 23, 4-(4-phenyl)phenyl-1-(2-phenyl-2-oxoethyl)piperidine]	–	84%	11.3%	–	–
O=C(CN1CCC(O)(c2ccc(Cc3ccc(F)cc3)cc2)CC1)c1ccccc1 [Compound 38, 4-[4-(4-fluorophenyl)methylphenyl]-1-(2-phenyl-2-oxoethyl)-4-piperidinol]	–	82%	18%	–	–
Cc1cccc(C)c1NC(=O)CN1CCC(O)(c2ccc(Oc3ccccc3)cc2)CC1 [Compound 55, N-(2,6-dimethylphenyl)-4-hydroxy-4-(4-phenoxy)phenyl-1-piperidinacetamide]	–	71.7%	28.3%	–	–
OC(CN1CCC(O)(c2ccc(-c3ccccc3)cc2)CC1)c1ccccc1 (centres unmarked) [Compound 44, 1-(2-hydroxy-2-phenyl)ethyl-4-(4-phenyl)phenyl-4-piperidinol]	–	68%	–	–	–
Fc1cc(C2CCN(CC3CC3c3ccccc3)CC2)ccc1-c1ccccc1 (stereo not drawn) [Compound 25, 4-(3-fluoro-4-phenyl)phenyl-1-(trans-2-phenyl-1-cyclopropylmethyl)piperidine]	–	54%	57%	–	–
OC1(c2ccc(-c3ccccc3)c(F)c2)CCN(CC2(c3ccccc3)CC2)CC1 [Compound 26, 4-(3-fluoro-4-phenyl)phenyl-1-(1-phenyl-1-cyclopropane)methyl-1-piperidinol]	–	–	30%	–	–
OC(COc1ccccc1)CN1CCC(O)(c2ccc(-c3ccccc3)cc2)CC1 (centres unmarked) [Compound 41, 1-(2-hydroxy-3-phenoxy)propyl-4-(4-phenyl)phenyl-4-piperidinol]	–	92%	23.7%	–	–
O=C(CN1CCC(O)(c2ccc(-c3ccccc3)cc2)CC1)c1ccccc1 [Compound 40, 1-(2-phenyl-2-oxoethyl)-4-(4-phenyl)phenyl-4-piperidinol]	–	84%	23%	–	–
O=C(CN1CCC(O)(c2ccc(Oc3ccccc3)cc2)CC1)c1ccccc1 [Compound 35, 4-(4-phenoxy)phenyl-1-(2-phenyl-2-oxoethyl)-4-piperidinol]	–	98%	27.7%	–	–
OC(COc1ccccc1)CN1CCC(c2ccc(-c3ccccc3)cc2)CC1 (centres unmarked) [Compound 29, 4-(4-phenyl)phenyl-1-(2-hydroxy-3-phenoxy)propylpiperidine]	–	68%	40%	–	–
c1ccc(-c2ccc(C3CCN(CC4(c5ccccc5)CC4)CC3)cc2)cc1 [Compound 28, 4-(4-phenyl)phenyl-1-(1-phenyl-1-cyclopropane)methylpiperidine]	–	56%	24%	–	–
Fc1cc(C2CCN(C/C=C/c3ccccc3)CC2)ccc1-c1ccccc1 [Compound 18, (E)-4-(3-fluoro-4-phenyl)phenyl-1-(3-phenyl-2-propenyl)piperidine]	–	62%	13.1%	–	–
O=C(CN1CCC(O)(c2ccc(Oc3ccccc3)cc2)CC1)NC1CC1c1ccccc1 (stereo not drawn) [Compound 53, N-(trans-2-phenyl-1-cyclopropyl)-4-hydroxy-4-(4-phenoxy)phenyl-1-piperidinacetamide]	–	74%	32.3%	–	–
COc1ccc(C(=O)CN2CCC(O)(c3ccc(-c4ccccc4)c(F)c3)CC2)cc1 [Compound 21, 4-(3-fluoro-4-phenyl)phenyl-1-[2-(4-methoxyphenyl)-2-oxoethyl]-4-piperidinol]	–	91.3%	18.6%	–	–
O[C@@H](COc1ccccc1)CN1CCC(O)(c2ccc(Oc3ccccc3)cc2)CC1 [Compound 46, (R)-4-(4-phenoxy)phenyl-1-(2-hydroxy-3-phenoxy)propyl-4-piperidinol]	–	–	19.8%	82%	–

Compound	Anti-veratridine effect (inhibiting rate %) (Sodium channel; 0.1 µM)	inhibition in vivo at 10 mg/kg (DBA/2N type mice)	Anti-veratridine effect (inhibiting rate %) (Sodium channel)	Antiseizure effect (suppression rate %) (DBA/2N type mice)	Antiseizure effect (suppression rate %) (DBA/2N type mice; 10 mg/kg)
OC1(c2ccc(Oc3ccccc3)cc2)CCN(CC2CC2c2ccccc2)CC1 (stereo not drawn) [Compound 50, 4-(4-phenoxy)phenyl-1-(trans-2-phenyl-1-cyclopropylmethyl)-4-piperidinol]	–	56%	33.4%	–	–
O[C@@H](COc1ccccc1)CN1CCC(O)(c2ccc(Cc3ccc(F)cc3)cc2)CC1 [Compound 48, (R)-4-[4-(4-fluorophenyl)methylphenyl]-1-(2-hydroxy-3-phenoxy)propyl-4-piperidinol]	–	82%	22.7%	–	–
OC1(c2ccc(-c3ccccc3)c(F)c2)CCN(CC2CC2c2ccccc2)CC1 (centres unmarked) [Compound 32]	–	–	27.3%	–	–
O[C@H](COc1ccccc1)CN1CCC(O)(c2ccc(Cc3ccc(F)cc3)cc2)CC1 [Compound 47, (S)-4-[4-(4-fluorophenyl)methylphenyl]-1-(2-hydroxy-3-phenoxy)propyl-4-piperidinol]	39.5%	–	–	–	78%
O=C(CN1CCC(O)(c2ccc(Oc3ccccc3)cc2)CC1)NC1(c2ccccc2)CC1 [Compound 57, N-(1-phenyl)cyclopropyl-4-hydroxy-4-(4-phenoxy)phenyl-1-piperidinacetamide]	–	60%	40.1%	–	–
O=C(CN1CCC(c2ccc(-c3ccccc3)c(F)c2)CC1)c1ccccc1 [Compound 19, 4-(3-fluoro-4-phenyl)phenyl-1-(2-phenyl-2-oxoethyl)piperidine]	–	52%	12.9%	–	–
OC(COc1ccccc1)CN1CCC(O)(c2ccc(-c3ccccc3)c(F)c2)CC1 (centres unmarked) [Compound 24, 4-(3-fluoro-4-phenyl)phenyl-1-(2-hydroxy-3-phenoxy)propyl-4-piperidinol]	–	74%	23.8%	–	–
C(=C\c1ccccc1)/CN1CCC(c2ccc(-c3ccccc3)cc2)CC1 [Compound 22, (E)-4-(4-phenyl)phenyl-1-(3-phenyl-2-propenyl)piperidine]	–	72%	–	–	–
O=C(CN1CCC(O)(c2ccc(Cc3ccc(F)cc3)cc2)CC1)NC1(c2ccccc2)CC1 [Compound 58, N-(1-phenyl)cyclopropyl-4-hydroxy-4-[4-(4-fluorophenyl)methylphenyl]-1-piperidinacetamide]	–	51.7%	11.3%	–	–
OC1(c2ccc(-c3ccccc3)cc2)CCN(C/C=C/c2ccccc2)CC1 [Compound 33, (E)-4-(4-phenyl)phenyl-1-(3-phenyl-2-propenyl)-4-piperidinol]	–	–	12.8%	–	–
c1ccc(-c2ccc(C3CCN(CC4CC4c4ccccc4)CC3)cc2)cc1 (stereo not drawn) [Compound 27, 4-(4-phenyl)phenyl-1-(trans-2-phenyl-1-cyclopropylmethyl)piperidine]	–	52%	41%	–	–
O=C(CN1CCC(c2ccc(-c3ccccc3)c(F)c2)CC1)NC1CC1c1ccccc1 (stereo not drawn) [Compound 31, N-(trans-2-phenyl-1-cyclopropyl)-4-(3-fluoro-4-phenyl)phenyl-1-piperidinacetamide]	–	–	14%	–	–
O=C(CN1CCC(O)(c2ccc(Cc3ccc(F)cc3)cc2)CC1)N[C@@H]1C[C@H]1c1ccccc1 (relative stereo) [Compound 54, N-(trans-2-phenyl-1-cyclopropyl)-4-[4-(4-fluorophenyl)methylphenyl]-4-hydroxy-1-piperidinacetamide]	–	58%	20.4%	–	–
OC1(c2ccc(Oc3ccccc3)cc2)CCN(CC2(c3ccccc3)CC2)CC1 [Compound 49, 4-(4-phenoxy)phenyl-1-(1-phenyl-1-cyclopropane)methyl-4-piperidinol]	–	50%	18.9%	–	–
OC1(c2ccc(Cc3ccc(F)cc3)cc2)CCN(C/C=C/c2ccccc2)CC1 [Compound 37, (E)-4-[4-(4-fluorophenyl)methylphenyl]-1-1-(3-phenyl-2-propenyl)-4-piperidinol]	–	88%	39.7%	–	–

Reference: US6706734B2, “Arylpiperidinol and arylpiperidine derivatives and pharmaceuticals containing the same” (Daiichi Suntory Pharma Co., Ltd., priority 1996, dated 2004)
